Assay results published in patent publication US20220259593A1, “CONTROL OF MAMMALIAN GENE DOSAGE USING CRISPR” (The Regents of the University of California, priority 2019, published 2022).

Legend:
K562 CRISPRi cells [1] = experiment: Perturb-seq pooled growth measurement (sgRNA counts, growth phenotype γ, relative activity); format: cell-based, human; conditions: for gamma_day5 / gamma_day10: pooled growth phenotype γ of the Perturb-seq sgRNA; for gamma_day5: day 5, K562 CRISPRi cells; for gamma_day10: day 10, K562 CRISPRi cells; for relative_activity_day5: γ relative to perfectly matched sgRNA (_00) of the same gene, day 5
Outline: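 sgRNA abundance was sequenced from genomic DNA of the same transduced population sampled on days two, seven and twelve. Phenotype γ compares normalized day seven and twelve counts with day two. Day-seven values (five days of growth) define relative sgRNA activity.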

K562 CRISPRi cells [2] = experiment: as above; format: cell-based, human; conditions: γ relative to perfectly matched sgRNA (_00) of the same gene, day 10

Substance: POLR1D_ + _28196016.23-P1_08 (guide GGGAAGCAGGGACCGACCGA; listed as DNA, chemistry not fully specified)
- gamma_day5 (K562 CRISPRi cells [1]): −0.8088
- gamma_day10 (K562 CRISPRi cells [1]): −0.6317
- relative_activity_day5 (K562 CRISPRi cells [1]): 1.065
- relative_activity_day10 (K562 CRISPRi cells [2]): 1.017

Substance: GINS1_ −_25388381.23-P1P2_06 (guide GGACTAGAACGGAAGGAGTG; listed as DNA, chemistry not fully specified)
- gamma_day5 (K562 CRISPRi cells [1]): −0.9794
- gamma_day10 (K562 CRISPRi cells [1]): −0.6548
- relative_activity_day5 (K562 CRISPRi cells [1]): 0.9801
- relative_activity_day10 (K562 CRISPRi cells [2]): 0.9191

Substance: RPS18_ + _33239917.23-P1P2_00 (guide GCTGCGATGCCGCTGGATCA; listed as DNA, chemistry not fully specified)
- gamma_day5 (K562 CRISPRi cells [1]): −0.8169
- gamma_day10 (K562 CRISPRi cells [1]): −0.503
- relative_activity_day5 (K562 CRISPRi cells [1]): 1
- relative_activity_day10 (K562 CRISPRi cells [2]): 1

Substance: SEC61A1_ −_127771295.23-P1_03 (guide GGTACTGACGTGTCTCTCGG; listed as DNA, chemistry not fully specified)
- gamma_day5 (K562 CRISPRi cells [1]): −0.5031
- gamma_day10 (K562 CRISPRi cells [1]): −0.3419
- relative_activity_day5 (K562 CRISPRi cells [1]): 0.5469
- relative_activity_day10 (K562 CRISPRi cells [2]): 0.6074

Substance: GATA1_ −_48645022.23-P1P2_03 (guide GTGCGCTTGCCACATCCCCA; listed as DNA, chemistry not fully specified)
- gamma_day5 (K562 CRISPRi cells [1]): −0.9855
- gamma_day10 (K562 CRISPRi cells [1]): −0.6259
- relative_activity_day5 (K562 CRISPRi cells [1]): 1.024
- relative_activity_day10 (K562 CRISPRi cells [2]): 1.017

Substance: CDC23_ −_137548987.23-P1P2_08 (guide GACAGCCATCGGGACCATGG; listed as DNA, chemistry not fully specified)
- gamma_day5 (K562 CRISPRi cells [1]): −0.9559
- gamma_day10 (K562 CRISPRi cells [1]): −0.5501
- relative_activity_day5 (K562 CRISPRi cells [1]): 0.8128
- relative_activity_day10 (K562 CRISPRi cells [2]): 0.8355

Substance: TUBB_ + _30688126.23-P1_10 (guide GCGGCAGGAAGGTTCAGAGA; listed as DNA, chemistry not fully specified)
- gamma_day5 (K562 CRISPRi cells [1]): −0.1978
- gamma_day10 (K562 CRISPRi cells [1]): −0.1451
- relative_activity_day5 (K562 CRISPRi cells [1]): 0.2205
- relative_activity_day10 (K562 CRISPRi cells [2]): 0.2073

Substance: HSPE1_ + _198365089.23-P1P2_00 (guide GGAGACTCGCAGTCCGGCCC; listed as DNA, chemistry not fully specified)
- gamma_day5 (K562 CRISPRi cells [1]): −0.7018
- gamma_day10 (K562 CRISPRi cells [1]): −0.5672
- relative_activity_day5 (K562 CRISPRi cells [1]): 1
- relative_activity_day10 (K562 CRISPRi cells [2]): 1

Substance: GNB2L1_ + _180670873.23-P1P2_13 (guide GTGCAAGGCGGCGGCGGGAG; listed as DNA, chemistry not fully specified)
- gamma_day5 (K562 CRISPRi cells [1]): −0.2097
- gamma_day10 (K562 CRISPRi cells [1]): −0.2074
- relative_activity_day5 (K562 CRISPRi cells [1]): 0.7211
- relative_activity_day10 (K562 CRISPRi cells [2]): 0.6791

Substance: TUBB_ + _30688126.23-P1_00 (guide GCGGCAGGAAGGTTCTGAGA; listed as DNA, chemistry not fully specified)
- gamma_day5 (K562 CRISPRi cells [1]): −0.897
- gamma_day10 (K562 CRISPRi cells [1]): −0.6999
- relative_activity_day5 (K562 CRISPRi cells [1]): 1
- relative_activity_day10 (K562 CRISPRi cells [2]): 1

Substance: CAD_ + _27440280.23-P1P2_13 (guide GGCTGGAGAGAAGCCTGGCG; listed as DNA, chemistry not fully specified)
- gamma_day5 (K562 CRISPRi cells [1]): −0.1861
- gamma_day10 (K562 CRISPRi cells [1]): −0.1648
- relative_activity_day5 (K562 CRISPRi cells [1]): 0.2413
- relative_activity_day10 (K562 CRISPRi cells [2]): 0.241

Substance: GNB2L1_ + _180670873.23-P1P2_08 (guide GTGCAAGGTGGCGGCAGGAG; listed as DNA, chemistry not fully specified)
- gamma_day5 (K562 CRISPRi cells [1]): −0.3061
- gamma_day10 (K562 CRISPRi cells [1]): −0.3155
- relative_activity_day5 (K562 CRISPRi cells [1]): 1.052
- relative_activity_day10 (K562 CRISPRi cells [2]): 1.033

Substance: GATA1_ −_48645022.23-P1P2_00 (guide GTGAGCTTGCCACATCCCCA; listed as DNA, chemistry not fully specified)
- gamma_day5 (K562 CRISPRi cells [1]): −0.9627
- gamma_day10 (K562 CRISPRi cells [1]): −0.6153
- relative_activity_day5 (K562 CRISPRi cells [1]): 1
- relative_activity_day10 (K562 CRISPRi cells [2]): 1

Substance: DUT_ + _48624411.23-P1P2_07 (guide GCGAGCGAGGAGCCCACCGG; listed as DNA, chemistry not fully specified)
- gamma_day5 (K562 CRISPRi cells [1]): −0.7197
- gamma_day10 (K562 CRISPRi cells [1]): −0.4998
- relative_activity_day5 (K562 CRISPRi cells [1]): 0.9077
- relative_activity_day10 (K562 CRISPRi cells [2]): 0.774

Substance: SEC61A1_ −_127771295.23-P1_02 (guide GGCGCTGACGTGTCTCTCGG; listed as DNA, chemistry not fully specified)
- gamma_day5 (K562 CRISPRi cells [1]): −0.6451
- gamma_day10 (K562 CRISPRi cells [1]): −0.4055
- relative_activity_day5 (K562 CRISPRi cells [1]): 0.7012
- relative_activity_day10 (K562 CRISPRi cells [2]): 0.7203

Substance: MTOR_ + _11322547.23-P1P2_10 (guide GGGCAGGGGGCCTGAAGCAG; listed as DNA, chemistry not fully specified)
- gamma_day5 (K562 CRISPRi cells [1]): −0.3048
- gamma_day10 (K562 CRISPRi cells [1]): −0.2327
- relative_activity_day5 (K562 CRISPRi cells [1]): 0.4435
- relative_activity_day10 (K562 CRISPRi cells [2]): 0.4141

Substance: RPS14_ + _149829238.23-P1P2_02 (guide GAGGCCCTGGCGCGACAATC; listed as DNA, chemistry not fully specified)
- gamma_day5 (K562 CRISPRi cells [1]): −0.5845
- gamma_day10 (K562 CRISPRi cells [1]): −0.3829
- relative_activity_day5 (K562 CRISPRi cells [1]): 0.739
- relative_activity_day10 (K562 CRISPRi cells [2]): 0.7666

Substance: SEC61A1_ −_127771295.23-P1_00 (guide GGCACTGACGTGTCTCTCGG; listed as DNA, chemistry not fully specified)
- gamma_day5 (K562 CRISPRi cells [1]): −0.92
- gamma_day10 (K562 CRISPRi cells [1]): −0.5629
- relative_activity_day5 (K562 CRISPRi cells [1]): 1
- relative_activity_day10 (K562 CRISPRi cells [2]): 1

Substance: SEC61A1_ −_127771295.23-P1_04 (guide GGCACTGAAGTGTCTCTCGG; listed as DNA, chemistry not fully specified)
- gamma_day5 (K562 CRISPRi cells [1]): −0.1539
- gamma_day10 (K562 CRISPRi cells [1]): −0.1153
- relative_activity_day5 (K562 CRISPRi cells [1]): 0.1673
- relative_activity_day10 (K562 CRISPRi cells [2]): 0.2049

Substance: RAN_ + _131356438.23-P1P2_00 (guide GGCGGTCGCTGCGCTTAGGG; listed as DNA, chemistry not fully specified)
- gamma_day5 (K562 CRISPRi cells [1]): −0.1974
- gamma_day10 (K562 CRISPRi cells [1]): −0.1615
- relative_activity_day5 (K562 CRISPRi cells [1]): 1
- relative_activity_day10 (K562 CRISPRi cells [2]): 1

Substance: RPS18_ + _33239917.23-P1P2_04 (guide GCTGCGATCCCGCTGGATCA; listed as DNA, chemistry not fully specified)
- gamma_day5 (K562 CRISPRi cells [1]): −0.08697
- gamma_day10 (K562 CRISPRi cells [1]): −0.08068
- relative_activity_day5 (K562 CRISPRi cells [1]): 0.1065
- relative_activity_day10 (K562 CRISPRi cells [2]): 0.1604

Substance: MTOR_ + _11322547.23-P1P2_06 (guide GGGCAGGGGGGCTGAAGCGG; listed as DNA, chemistry not fully specified)
- gamma_day5 (K562 CRISPRi cells [1]): −0.3933
- gamma_day10 (K562 CRISPRi cells [1]): −0.2989
- relative_activity_day5 (K562 CRISPRi cells [1]): 0.5723
- relative_activity_day10 (K562 CRISPRi cells [2]): 0.532

Substance: EIF2S1_ −_67827080.23-P1P2_00 (guide GAGCGAAGCGCACGCTGAGG; listed as DNA, chemistry not fully specified)
- gamma_day5 (K562 CRISPRi cells [1]): −0.9047
- gamma_day10 (K562 CRISPRi cells [1]): −0.5155
- relative_activity_day5 (K562 CRISPRi cells [1]): 1
- relative_activity_day10 (K562 CRISPRi cells [2]): 1

Substance: HSPA5_ + _128003624.23-P1P2_08 (guide GAGCCGAGTGGGCGACGGTG; listed as DNA, chemistry not fully specified)
- gamma_day5 (K562 CRISPRi cells [1]): −0.7566
- gamma_day10 (K562 CRISPRi cells [1]): −0.4435
- relative_activity_day5 (K562 CRISPRi cells [1]): 1.012
- relative_activity_day10 (K562 CRISPRi cells [2]): 1.038

Substance: RPL9_ + _39460483.23-P1P2_00 (guide GGATGTTTCTGTGCTCGTGG; listed as DNA, chemistry not fully specified)
- gamma_day5 (K562 CRISPRi cells [1]): −1.113
- gamma_day10 (K562 CRISPRi cells [1]): −0.6699
- relative_activity_day5 (K562 CRISPRi cells [1]): 1
- relative_activity_day10 (K562 CRISPRi cells [2]): 1
